Consider 2 molecules from patent US7398119B2, “Assessing blood brain barrier dynamics or identifying or measuring selected substances, including ethanol or toxins, in a subject by analyzing Raman spectrum signals” (Childrens Hospital Los Angeles, priority 1998, dated 2008).

For series [1] the following is noted: blood alcohol and brain alcohol levels; cited from earlier work.
A short description of series [2]: Correlation of aqueous humor glucose with rising blood glucose after ketamine/xylazine anesthesia. The format is in vivo, New Zealand white rabbits. Conditions: xylazine 7.5 mg/kg with ketamine 50 mg/kg, single intramuscular injection. How it is done:
Nine female New Zealand white rabbits were used for this part of the study. They were anesthetized with ketamine (50 mg/kg) and xylazine (7.5 mg/kg) given as a single intramuscular injection. Xylazine blocks release of insulin from the pancreas and causes blood glucose to rise (K. Chalabi et al., Ophthalmic Res. 19, 289 (1987); J. Arnbjerg et al., Ophthalmic Res. 22, 265 (1990)).
Blood samples were taken from the central ear arteries at various times following the injection of anesthetic once the animals were adequately anesthetized. Whole blood was immediately measured for glucose concentration with a commercial glucometer (Glucometer Elite, Bayer). In most instances two measurements were made. The average measurements are reported. If the measurements differed by more than 20%, a third measurement was made. […]
At various times after induction of anesthesia, samples of aqueous humor were taken. […] Aqueous humor glucose concentration was measured with the glucometer in a manner similar to the blood. […]
Average blood glucose concentrations for each animal were plotted against time after anesthetic injection. Since it was not possible to obtain blood samples simultaneous with aqueous humor samples, a best-fit second-order polynomial was calculated for each animal. […] Aqueous humor glucose concentration was then plotted against the calculated simultaneous blood glucose concentration for all animals. […]

The structures appear in SMILES notation.

For `CCO` [alcohol, ethanol], the “concentrations that may be lethal” value in series [1] was “above 1%”.

`Cc1cccc(C)c1N=C1NCCCS1` [xylazine]: in series [2], the “effect on blood glucose over time” value is on record as “steadily rises at variable rates”.
